Measurements reported in paper PMC6944487, “Tandem Molecular Self-Assembly Selectively Inhibits Lung Cancer Cells by Inducing Endoplasmic Reticulum Stress” (Research, 2019).
Where two headings read alike, the source gives them in different places. *1 amine or outer side, *2 acyl side, *3 side chain or, on linkers, in order; H or OH if unused. Where a SMILES comes first, the peptide text is derived from it. [ ]: non-standard residue; d: D form. The star is where a group is joined. X1 = O=C(c1ccc(/N=N/c2ccc(N[*:1])cc2)cc1)[*:2]; pY = N[C@@H](Cc1ccc(OP(=O)(O)O)cc1)C(=O)O; NBD = O=[N+]([O-])c1ccc(*)c2nonc12; βAla = NCCC(=O)O

Assays:
[1] = tested on: A549 cells; assay: Lysosome colocalization (CLSM, Lyso-Tracker); format: cell-based, human; settings: 200 μM; for lysosomal escape: 4 h, Lyso-Tracker; for mean fluorescence intensity in cells (versus cells treated with Comp. 4 and Comp. 5): A549 cells
Procedure: (§1) A549 cells was seeded in CLSM cultural dish at a density of 1 × 10^5 cells. After incubation for 12 h, a medium was removed. The cells were then incubated with Comp. 1, 2, 4, or 5 (200 μM) for 1 or 4 h (lysosome colocation). Cells were incubated with Comp. 1 (200 μM) for 8, 10, and 12 h (mitochondrial colocation). Next, the medium containing different compound was removed and washed by PBS for three times, and lysosome tracker (1×) was incubated with cells for 45 min. The medium was removed and the cells were washed by PBS three times. 1-2 mL of DMEM was added for imaging by live cell imaging systems (λexc. = 488 nm, emission = 510‐560 nm; λexc. = 543 nm, emission = 650‐750 nm). Mito-Tracker (1×) was incubated with cells for 30 min. The medium was then removed and washed by PBS three times. 1-2 mL of DMEM was added for imaging by live cell imaging systems (λexc. = 488 nm, emission = 510‐560 nm; λexc. = 633 nm, emission = 650‐750 nm, all test conditions are consistent).

[2] = tested on: HeLa cells; assay: Cell proliferation (SRB) assay, HeLa; format: cell-based; settings: 48 h incubation, n = 3
Procedure: (§2) PC-3, MCF-7, HeLa, U87, HPAEpiC, and A549 cells were purchased from the Type Culture Collection of the Chinese Academy of Sciences (Shanghai, China); PC-3, MCF-7, HeLa, U87, and A549 cells were cultured in Dulbecco's Modified Eagle's medium (DMEM) supplemented with 10% v/v fetal bovine serum (FBS), 100 U/mL penicillin, and 100 μg/mL streptomycin; HPAEpiC cells were cultured in RPMI 1640 Medium supplemented with 10% v/v fetal bovine serum, 100 U/mL penicillin, and 100 μg/mL streptomycin. All cells were at 37°C in a humidified atmosphere of 5% CO2.
(§3) In this experiment, all cell lines were incubated in a 96-well plate at a density of about 6000. According to previous method, cell was fixed by cold 10% trichloroacetic acid solution at 4°C overnight after incubated with compound for 48 h. Then, discarding the fixative solution and washed by water for three times, put the 96-well plate in a 37°C oven to dry. Next, 0.4% SRB solution was used to stain cell for 20 min at room temperature to form protein-bound dry, then using 1% AcOH solution to clean excessive SRB. Put the 96-well plate in a 37°C oven to dry and add 10 mM Tris base solution of 100 μL every well to solubilize the protein-bound dry for 30 min. Measure the OD at 570 nm in a microplate reader.

[3] = Appearance of solution in PBS; format: physicochemical; settings: 200 μM (0.03 wt%) in PBS pH 7.4
Procedure: (§4) The Comp. […] 1. […] We thereafter added the enzyme ALP (1 U·mL^−1) to the PBS solution of Comp. 1 at 37°C, and the solution remained clear after 12 h (Figure 2(a)). […] 1 had been converted to Comp. 2 within 6 h (Figures 2(a) and ). Accordingly, the nanofibers with a diameter of 6–10 nm formed in the resulting solution of Comp. 2 (Figure 2(c)). With the addition of rat liver microsomes (226 μg·mL^−1) and NADPH (50 equiv.) to trigger the conversion from azobenzene to aniline, a yellowish precipitate was clearly observed within 24 h (Figure 2(b)). […] 2 had been converted into Comp. 3 within 24 h (Figures 2(b) and ). […] 2 and Comp. 3. […] The above observations strongly indicated the tandem molecular self-assembly behavior of Comp. 1 with the catalysis by ALP and reductase.
(§5) […] of Comp. 1 was dissolved in 500 μL of PBS (pH = 7.4) as a stock solution (PBS was bubbled by Argon for 30 min in advance). The concentration of the stock solution was 200 μM. Na2CO3 (1 M) was added to the above solution to adjust the final pH to 7.4. The solution was incubated at 37°C. The alkali phosphatase (1 U/mL) was then added to the solution for 12 hours at 37°C to trigger the first step of self-assembly. After that, rat liver microsomes (226 μg/mL) and NADPH (50 equiv.) were added for 24 hours at 37°C to trigger the second step of self-assembly.

[4] = tested on: A549 cells; assay: Mitochondrial colocalization / cytoplasmic vacuolization, ER stress (CLSM, Mito-Tracker); format: cell-based, human; settings: 200 μM, 10-12 h
Procedure: as §1

[5] = Critical aggregation concentration (CAC) by dynamic light scattering; format: physicochemical; settings: DLS, light scattering intensity per concentration, PBS pH 7.4
Procedure: The synthesized compounds were characterized by 1H NMR (Bruker ARX-400) using DMSO-d6 as the solvent. HPLC was conducted at the LUMTECH HPLC (Germany) system using a C18 RP column with methanol (0.05% of TFA) and water (0.05% of TFA) as the eluents. LC-MS was conducted at the LCMS-20AD (Shimadzu) system. HR-MS was performed at the Agilent 6520 Q-TOF LC/MS using ESI-L low concentration tuning mix (Lot No. LB60116 from the Agilent Tech.). CMC values and size distribution of micelles were determined by dynamic light scattering (DLS); this experiment was conducted on a laser light scattering spectrometer (BI-200SM, Brookhaven, USA). The morphology conversion of the peptide derivatives was measured by TEM performed on a Tecnai G2 F20 system, operating at 200 kV. Cellular uptake and drug tracking images were taken by a confocal laser scanning microscopy (Leica TSC SP8, Germany).
The CAC value of compounds 1, 2, 4, and 5 in PBS solution (pH = 7.4) was determined by dynamic light scattering (DLS), and the light scattering intensity was recorded for each concentration analyzed.

[6] = tested on: A549 cells; assay: JC-1 staining, mitochondrial membrane potential; format: cell-based, human; settings: 200 μM, 4 h time point
Procedure: Mitochondrial membrane potential was assessed by staining with JC-1 dye (5,50,6,60-tetrachloro-1,10,3,30-tetraethylbenzimidazol-carbocyanine iodide) (abcam). 1 × 10^4 A549 cells per well, seeded in 96-well plates, were treated with Comp.1 (200 μM) for different time points and FCCP (100 μM) for 4 h. After treatment, a medium was removed and the cells were then incubated in 100 μL PBS containing JC-1 dye (20 μM) for 15 min at 37°C and subsequently washed with PBS for three times. The red fluorescence (λexc. = 543 nm, emission = 570‐620 nm) was determined by a microplate reader (BioTek).
A549 cells were seeded in CLSM cultural dish at a density of 1 × 10^5 cells. After incubation for 12 h, a medium was removed. The cells were then incubated with Comp. 1 (200 μM) at different time points. The cells also were incubated with FCCP (100 μM) for 4 h as the positive control group. Then, removing medium, JC-1 staining kit (20 μM) was incubated with A549 cells for 15 min. The medium was removed, and the cells were washed by PBS three times. 1 mL of PBS was added for imaging by live cell imaging systems (green channel (depolarization) λexc. = 488 nm, emission = 500 − 540 nm; red channel (hyperpolarization) λexc. = 543 nm, emission = 570‐620 nm, all test conditions are consistent).

[7] = tested on: U87 cells; assay: Cell proliferation (SRB) assay, U87; format: cell-based; settings: 48 h incubation, n = 3
Procedure: as §2, §3

[8] = tested on: PC-3 cells; assay: Cell proliferation (SRB) assay, PC-3; format: cell-based; settings: 48 h incubation, n = 3
Procedure: as §2, §3

[9] = tested on: A549 cells; assay: Cell proliferation (SRB) assay, A549; format: cell-based, human
Procedure: as §2, §3

[10] = tested on: T1, alkaline phosphatase (ALP); assay: Conversion by alkaline phosphatase (LC-MS); format: in vitro ADME; settings: alkaline phosphatase (ALP) in PBS; ALP 1 U/mL, 200 μM in PBS pH 7.4, 37°C, within 6 h, LC-MS trace; read-out: Comp. 1 converted to Comp. 2
T1 construct: purchased Takara D2250
Procedure: as §4, §5

[11] = tested on: normal human alveolar epithelial cells (HPAEpiC); assay: Cell proliferation (SRB) assay, HPAEpiC; format: cell-based; settings: 48 h incubation, n = 3
Procedure: as §2, §3

[12] = Body weight of treated tumor-bearing mice; format: in vivo, BALB/c nude mice; settings: 5 mg/kg i.v. once every three days
Procedure: (§6) A549 cells were maintained in our lab. The BALB/c nude (6 weeks old, female) mice purchased from Beijing Vital River Laboratory Animal Technology Co., Ltd. were used. 5 × 10^7 A549 cells (100 μL) mixed with growth factor-reduced Matrigel (50 μL, BD Biosciences) were subcutaneously injected into the right flank of each mouse. The drug treatment was started when tumor volume reached 80 mm^3; the tumor volume was calculated by the formula: length∗width^2/2. Mice (n = 5) received compounds 1, 2, 4, and 5 (5.0 mg/kg) in PBS by i.v. injection, whereas the control group (n = 5) received PBS only. The compound was injected every three days. The mice were weighed, and tumors were measured every two days during the treatment period.

[13] = tested on: MCF-7 cells; assay: Cell proliferation (SRB) assay, MCF-7; format: cell-based; settings: 48 h incubation, n = 3
Procedure: as §2, §3

[14] = tested on: different cell lines; assay: Cell uptakes; format: cell-based; settings: 200 μM, 6 h, cell lysate OD 488 nm, n = 3
Procedure: Cells were incubated in 12-well plates at a density of 10 × 10^6 cells. The cell cultural medium containing 200 μM of each compound was added to the cells, and the upper medium was removed at 6 h time point. Cells were washed for three times with PBS or DMEM. After being treated with cell lysis solution (1 mL per well contained 200 μL DMSO) for 15 min, the solutions were centrifuged at […] for 10 min. The amount of compound in the upper solution was determined by a microplate reader at OD of 488 nm (Bio-Rad Mark^TM, America).

[15] = tested on: A549 xenograft tumors; assay: In vivo antitumor assay, A549 xenograft; set-up: species or system BALB/c nude mice; settings: 5 mg/kg i.v. once every three days, tumors at day 15
Procedure: as §6
The mice were sacrificed to obtain tumor tissues; tumor tissues were fixed by 4% formalin over 48 h, embedded in paraffin, cut into 5-6 μm sections for H&E staining, and evaluated using light microscopy as previously described method.

[16] = tested on: reductase (rat liver microsomes); assay: in vitro; format: in vitro ADME; settings: pH 7.4
Procedure: as §4, §5

[17] = SRB, 48 h incubation, mean ± SEM n = 3, read-out: IC50 in A549 cells

## N=C(N)NCCC[C@H](NC(=O)[C@H](CCC(=O)O)NC(=O)c1ccc(/N=N/c2ccc(NC(=O)CNC(=O)[C@H](Cc3ccc(OP(=O)(O)O)cc3)NC(=O)[C@H](Cc3ccccc3)NC(=O)[C@H](Cc3ccccc3)NC(=O)CNC(=O)CCNc3ccc([N+](=O)[O-])c4nonc34)cc2)cc1)C(=O)NCC(=O)N[C@@H](CC(=O)O)C(=O)O [Comp. 1, NBD-GFFpYG-N=N-ERGD] ({NBD-βAla}-GFF[pY]G[X1]ERGD-OH)
[1]
  lysosomal escape: efficiently escaped from the late endosomes/lysosomes
  mean fluorescence intensity in cells (versus cells treated with Comp. 4 and Comp. 5): significantly higher
[2]
  IC50: ~74.7 µM
[3]
  appearance of solution: clear solution
[4]
  ER stress / cytoplasmic vacuolization: massive cytoplasmic vacuolization
[5]
  critical aggregation concentration (CAC): 263.6 µM
[6]
  mitochondrial membrane potential (JC-1): caused mitochondrial depolarization
[7]
  IC50: ~5.07 µM
[8]
  IC50: ~20.5 µM
[9]; [17]
  IC50: ~2.49 µM
[10]
  metabolised at 6 h, 200 μM: > 95%
[11]
  IC50: ~40.1 µM
[12]
  body weight change: did not exhibit a loss of body weight
[13]
  IC50: ~15.9 µM
[14]
  cellular uptake in different cells: no significant differences
[15]
  H&E histology of tumor tissue: severely apoptotic

## N=C(N)NCCC[C@H](NC(=O)[C@H](CCC(=O)O)NC(=O)c1ccc(/N=N/c2ccc(NC(=O)CNC(=O)[C@H](Cc3ccc(O)cc3)NC(=O)[C@H](Cc3ccccc3)NC(=O)[C@H](Cc3ccccc3)NC(=O)CNC(=O)CCNc3ccc([N+](=O)[O-])c4nonc34)cc2)cc1)C(=O)NCC(=O)N[C@@H](CC(=O)O)C(=O)O [Comp. 2, NBD-GFFYG-N=N-ERGD] ({NBD-βAla}-GFFYG[X1]ERGD-OH)
[1]
  lysosomal escape: small fraction of lysosomal escape
  mean fluorescence intensity in cells (versus cells treated with Comp. 4 and Comp. 5): significantly higher
[4]
  ER stress / cytoplasmic vacuolization: only caused slight ER stress
[9]; [17]
  IC50: 82.7 µM
[16]
  metabolised at 24 h, 200 μM: > 70%
[15]
  H&E histology of tumor tissue: underwent apoptosis

## N=C(N)NCCC[C@H](NC(=O)[C@H](CCC(=O)O)NC(=O)CNC(=O)[C@H](Cc1ccc(OP(=O)(O)O)cc1)NC(=O)[C@H](Cc1ccccc1)NC(=O)[C@H](Cc1ccccc1)NC(=O)CNC(=O)CCNc1ccc([N+](=O)[O-])c2nonc12)C(=O)NCC(=O)N[C@@H](CC(=O)O)C(=O)O [Comp. 4, NBD-GFFpYGERGD] ({NBD-βAla}-GFF[pY]GERGD-OH)
[9]; [17]
  IC50: > 500 µM

## N=C(N)NCCC[C@H](NC(=O)[C@H](CCC(=O)O)NC(=O)CNC(=O)[C@H](Cc1ccc(O)cc1)NC(=O)[C@H](Cc1ccccc1)NC(=O)[C@H](Cc1ccccc1)NC(=O)CNC(=O)CCNc1ccc([N+](=O)[O-])c2nonc12)C(=O)NCC(=O)N[C@@H](CC(=O)O)C(=O)O [Comp. 5, NBD-GFFYGERGD] ({NBD-βAla}-GFFYGERGD-OH)
[9]; 48 h
  IC50: > 500 µM
